SMILES strings stand for the structures. pIC50: −log10 of the molar value. Where only a bound is given, the exact number is not on record here.

The test system of one assay is HT-29. Nature of the assay: Cytotoxicity against human HT-29 cells assessed as inhibition of cell growth incubated for 72 hrs by MTT assay. It is filed as functional, cell-based. The settings on record: HT-29, 72 h. For orientation: Tetrazolium dyes change colour on reduction, which living cells bring about.
The test system of another assay is HCT-116. Description: Cytotoxicity against human HCT-116 cells assessed as inhibition of cell growth incubated for 72 hrs by MTT assay. It is filed as functional, cell-based. The settings on record: HCT-116, 72 h.

Broadly, the pIC50 is the IC50 on a negative log10 scale, so that one unit is a factor of ten. For `CC[C@@]12CCO[C@@H]1N(CC[C@]1(O)C(=O)Nc3ccccc31)CC[C@H]2O`, the negative logarithm of the IC50 (pIC50) in the assay on HT-29 and in the assay with HCT-116 was less than 5.00 throughout.

As to `CC[C@@]12CCC[N@@+]3([O-])C[C@@H]4[C@@](O)(c5ccccc5N[C@]4(O)CC1)[C@@H]23`, the values for the pIC50 in the assay on HT-29 and in the assay with HCT-116 were 5.15 and less than 5.00, respectively.

On to `CC[C@@]12CCC[N+]3([O-])CC[C@@]4(C(=Nc5ccccc54)[C@@H](O)C1)[C@@H]23` (stereo partly specified), for which the pIC50 with HT-29 and in the assay with HCT-116 was less than 5.00 each time.

`CC[C@]12CCCN[C@]13/C(=C\C(=O)O)c1ccccc1N3C(=O)CC2`: the pIC50 in the assay with HT-29 and in the assay with HCT-116 was less than 5.00 throughout.

Take `CC[C@]1(CCC(=O)OC)CCCNC1`: the pIC50 with HT-29 and with HCT-116 was less than 5.00 in each case.

`CC[C@]12CCCN(C1)C(=O)CC2`: the pIC50 in the assay with HT-29 was 5.14; in the assay with HCT-116, less than 5.00.

As for `COc1cccc2c1C(=O)c1c(O)c3c(c(O)c1C2=O)C[C@@](O)(C(=O)CO)C[C@@H]3O[C@H]1C[C@H](N)[C@H](O)[C@H](C)O1` [DOXORUBICIN], the negative logarithm of the IC50 (pIC50) in the assay on HT-29 was 7.22; with HCT-116, 7.40.

`COC(=O)[C@H]1CO[C@H](C)[C@]2(O)C[N@+]3([O-])CCc4c([nH]c5ccccc45)[C@@H]3C[C@H]12`: the negative logarithm of the IC50 (pIC50) in the assay on HT-29 and in the assay on HCT-116 was less than 5.00 throughout.

The record behind these values is ChEMBL document CHEMBL5357051, “Quinoline, Indole, and Isogranatanine Alkaloids from Malayan Leuconotis eugeniifolia” (J Nat Prod, 2024).
